Assay results taken from patent EP1566447A1, “Glimepiride- and insulin-induced glycosylphosphatidylinositol-specific phospholipase C regulation” (priority 2004, dated 2005).

Test: stability of the compound in solvents and as a solid
Format: physicochemical
Experimental: As starting material, racemic 1,4,5,6-tetra-O-benzyl-myo-inositol (thereinafter: compound 1) was prepared by a procedure as disclosed in "Zhai, H.-X. et al. (1995) Tetrahedron Lett. 36: 7403-7406". Compound 1 was then phosphorylated with dodecylphosphonic dichloride in the presence of triethylamine and dimethyl-aminopyridine to yield tetra-O-benzyl-myo-inositol-1,2-cyclo-dodecylphosphonic acid (thereinafter: compound 2). By catalytic hydrogenation with 10% Pd on charcoal compound 2 was debenzylated to myo-inositol-1,2-cyclo-dodecylphosphonic acid (thereinafter: compound 3 or GPI-2350) as a mixture of diastereomeres. For synthesis of compound 2 (Fig. 1), 1 g (1.8 mmol) of compound 1 was dissolved in 60 ml of methylene chloride and 1 ml of triethylamine, 200 mg dimethyl-aminopyridine and 1 g ([…]) of dodecylphosphonic dichloride were added. This reaction solution was allowed to stand (45 min, room temperature). Then 50 ml of ethyl acetate were added and the mixture was filtrated on silical gel. After concentration of the solvent, the residue was purified by flash chromatography (n-heptane/ethyl acetate, 1/1, by vol.). Yield of compound 2: 580 mg (43 %) of a white amorphous solid. TLC: n-heptane/ethyl acetate (1/1, by vol.), Rf = 0.7. MS: (M + Li)^+ = 761.4, calculated […], M = 754.9. […] MS: (M + Li)^+ = 401.2, calculated C18H35O7P, M = 394.4.

CCCCCCCCCCCCP1(=O)O[C@@H]2[C@H](O)[C@@H](O)[C@H](O)[C@@H](O)[C@@H]2O1 (mixture of isomers) [GPI-2350, myo-inositol-1,2-cyclo-dodecylphosphonic acid]
stability in acidic vs. basic solvents: less stable in acidic than basic solvents
stability in methanol (methanol): for days
